One experiment has as its system NHE1.
Test: not given
To be noted: basal; cited from earlier work.
Human RSK2, sequence (P51812 whole entry): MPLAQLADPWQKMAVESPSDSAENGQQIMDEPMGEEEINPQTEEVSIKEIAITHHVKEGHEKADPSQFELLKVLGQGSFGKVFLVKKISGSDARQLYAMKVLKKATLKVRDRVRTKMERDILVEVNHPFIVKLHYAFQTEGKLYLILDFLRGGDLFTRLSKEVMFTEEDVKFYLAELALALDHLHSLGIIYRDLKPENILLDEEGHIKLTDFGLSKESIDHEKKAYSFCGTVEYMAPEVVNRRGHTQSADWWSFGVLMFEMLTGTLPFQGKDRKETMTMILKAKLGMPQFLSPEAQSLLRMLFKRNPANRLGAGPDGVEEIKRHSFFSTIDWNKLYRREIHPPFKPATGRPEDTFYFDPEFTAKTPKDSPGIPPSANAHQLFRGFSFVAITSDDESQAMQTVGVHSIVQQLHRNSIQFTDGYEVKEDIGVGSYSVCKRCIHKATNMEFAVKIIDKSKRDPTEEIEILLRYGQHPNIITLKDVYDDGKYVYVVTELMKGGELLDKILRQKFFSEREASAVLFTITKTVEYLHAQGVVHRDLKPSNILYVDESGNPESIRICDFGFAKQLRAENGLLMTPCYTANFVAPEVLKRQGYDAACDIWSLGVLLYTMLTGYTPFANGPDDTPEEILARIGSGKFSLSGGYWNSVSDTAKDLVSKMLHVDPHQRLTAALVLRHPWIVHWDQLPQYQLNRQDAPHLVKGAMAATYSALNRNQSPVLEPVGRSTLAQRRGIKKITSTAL
On to `Cc1ccc(-c2c(C(=O)CF)n(CCCO)c3ncnc(N)c23)cc1` [fmk], for which the “basal NHE1 activity” value is “without affecting basal activity”.

The same experiment, now with this note: cited from earlier work.
For the compound `Cc1ccc(-c2c(C(=O)CF)n(CCCO)c3ncnc(N)c23)cc1` [fmk], the “phosphorylation of NHE1” value is recorded as “inhibit”.

Staying with this experiment, now noted: phenylephrine-induced; cited from earlier work.
With `Cc1ccc(-c2c(C(=O)CF)n(CCCO)c3ncnc(N)c23)cc1` [fmk], the “phenylephrine-induced enhanced NHE1 activity” value was “inhibit”.

The next experiment addresses Human RSK2 (Homo sapiens (Human), UniProt P51812). Description: Human RSK2 assay (Kinase Glo Plus, residual ATP).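 Also: recombinant human RSK2 phosphorylating a substrate peptide, 90 min at 28 °C, leftover ATP read by luminescence, RLU scaled between no-kinase background and uninhibited kinase controls, 4-parameter fit.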 Type of experiment: biochemical.
Details: not given
For `Cc1cc(NC(=O)c2ccc3cc4n(c3c2)[C@@H](C)[C@H](C)NC4=O)no1` (relative stereo) [Example 168, Trans-3,4-dimethyl-N-(5-methyl-1,2-oxazol-3-yl)-1-oxo-1,2,3,4-tetrahydropyrazino[1,2-a]indole-7-carboxamide], the 50% inhibitory concentration (IC50) was 160 nM.

As for `Cc1cc(NC(=O)c2ccc3cc4n(c3c2)CC2(CC2)CNC4=O)no1` [Example 127, N-(5-methyl-1,2-oxazol-3-yl)-1′-oxo-2′,3′-dihydro-1′H-spiro[cyclopropane-1,4′-[1,4]diazepino[1,2-a]indole]-8′-carboxamide], the IC50 is 145 nM.

For the compound `Cn1cc(NC(=O)c2ccc3cc4n(c3c2)C(C)(C)CNC4=O)nc1C(=O)NC(C)(C)C` [Example 231, N-[2-(tert-butylcarbamoyl)-1-methyl-1H-imidazol-4-yl]-4,4-dimethyl-1-oxo-1,2,3,4-tetrahydropyrazino[1,2-a]indole-7-carboxamide], the IC50 turned out to be 6 nM.

Consider `CCn1c(NC(=O)c2ccc3cc4n(c3c2)C(C)CCNC4=O)nc2ccccc21` (stereo not shown) [Example 166, N-(1-ethyl-1H-benzimidazol-2-yl)-5-methyl-1-oxo-2,3,4,5-tetrahydro-1H-[1,4]diazepino[1,2-a]indole-8-carboxamide], for which the IC50 is 0.6 nM.

As to `C[C@@H]1CCNC(=O)c2cc3ccc(C(=O)Nc4cnn(Cc5ccccc5)c4)cc3n21` [Example 143, (5R)-N-(1-benzyl-1H-pyrazol-4-yl)-5-methyl-1-oxo-2,3,4,5-tetrahydro-1H-[1,4]diazepino[1,2-a]indole-8-carboxamide], the half-maximal inhibitory concentration (IC50) came to 0.71 nM.

Regarding `Cc1noc(NC(=O)c2ccc3cc4n(c3c2)CCCNC4=O)c1Cl` [Example 194, N-(4-chloro-3-methyl-1,2-oxazol-5-yl)-1-oxo-2,3,4,5-tetrahydro-1H-[1,4]diazepino[1,2-a]indole-8-carboxamide], the IC50 came to 3300 nM.

For the compound `CC(C)c1cccc(NC(=O)c2ccc3cc4n(c3c2)CCCNC4=O)c1` [Example 145, 1-oxo-N-[3-(propan-2-yl)phenyl]-2,3,4,5-tetrahydro-1H-[1,4]diazepino[1,2-a]indole-8-carboxamide], the half-inhibitory concentration (IC50) came to 140 nM.

On to `O=C(Nc1cnn(-c2ccccc2)c1)c1ccc2cc3n(c2c1)CCCNC3=O` [Example 192, 1-oxo-N-(1-phenyl-1H-pyrazol-4-yl)-2,3,4,5-tetrahydro-1H-[1,4]diazepino[1,2-a]indole-8-carboxamide], for which the concentration for half-maximal inhibition (IC50) was 18 nM.

Take `N#Cc1ccc(NC(=O)c2ccc3cc4n(c3c2)CCCNC4=O)cc1` [Example 185, N-(4-cyanophenyl)-1-oxo-2,3,4,5-tetrahydro-1H-[1,4]diazepino[1,2-a]indole-8-carboxamide]: the 50% inhibitory concentration (IC50) stood at 106 nM.

As for `O=C(Nc1ccncc1)c1ccc2cc3n(c2c1)CCCNC3=O` [Example 156, 1-oxo-N-(pyridin-4-yl)-2,3,4,5-tetrahydro-1H-[1,4]diazepino[1,2-a]indole-8-carboxamide], the IC50 turned out to be 39 nM.

In the case of `O=C(Nc1ccc2scnc2c1)c1ccc2cc3n(c2c1)CCCNC3=O` [Example 203, N-(1,3-benzothiazol-5-yl)-1-oxo-2,3,4,5-tetrahydro-1H-[1,4]diazepino[1,2-a]indole-8-carboxamide], the IC50 stood at 180 nM.

In the case of `O=C(Nc1cnn(CCc2ccccc2)c1)c1ccc2cc3n(c2c1)CCCNC3=O` [Example 113, 1-oxo-N-[1-(2-phenylethyl)-1H-pyrazol-4-yl]-2,3,4,5-tetrahydro-1H-[1,4]diazepino[1,2-a]indole-8-carboxamide], the IC50 was 17 nM.

Regarding `O=C(Nc1cc(-c2ccc(F)cc2)on1)c1ccc2cc3n(c2c1)CCCNC3=O` [Example 184, N-[5-(4-fluorophenyl)-1,2-oxazol-3-yl]-1-oxo-2,3,4,5-tetrahydro-1H-[1,4]diazepino[1,2-a]indole-8-carboxamide], the IC50 was 155 nM.

In the case of `C[C@H]1NC(=O)c2cc3ccc(C(=O)Nc4nc5ccccc5n4CCCN(C)C)cc3n2[C@H]1C` (relative stereo) [Example 90, N-{1-[3-(dimethylamino)propyl]-1H-benzimidazol-2-yl}-cis-3,4-dimethyl-1-oxo-1,2,3,4-tetrahydropyrazino[1,2-a]indole-7-carboxamide], the IC50 amounted to 2.1 nM.

Regarding `CN(C)c1cccc(Cn2cc(NC(=O)c3ccc4cc5n(c4c3)CCCNC5=O)cn2)c1` [Example 120, N-{1-[3-(dimethylamino)benzyl]-1H-pyrazol-4-yl}-1-oxo-2,3,4,5-tetrahydro-1H-[1,4]diazepino[1,2-a]indole-8-carboxamide], the half-inhibitory concentration (IC50) was 3.8 nM.

Turning to `O=C(Nc1cnn(Cc2ccccc2)c1)c1ccc2cc3n(c2c1)CC(F)(F)CNC3=O` [Example 115, N-(1-benzyl-1H-pyrazol-4-yl)-4,4-difluoro-1-oxo-2,3,4,5-tetrahydro-1H-[1,4]diazepino[1,2-a]indole-8-carboxamide], the IC50 was found to be 32 nM.

As for `Cc1cc(NC(=O)c2ccc3cc4n(c3c2)CCCNC4=O)no1` [Example 2, N-(5-methyl-1,2-oxazol-3-yl)-1-oxo-2,3,4,5-tetrahydro-1H-[1,4]diazepino[1,2-a]indole-8-carboxamide], the IC50 was 30 nM.

Take `CN(C)CC(C)(C)Cn1c(NC(=O)c2ccc3cc4n(c3c2)CCCNC4=O)nc2ccccc21` [Example 84, N-{1-[3-(dimethylamino)-2,2-dimethylpropyl]-1H-benzimidazol-2-yl}-1-oxo-2,3,4,5-tetrahydro-1H-[1,4]diazepino[1,2-a]indole-8-carboxamide]: the concentration for half-maximal inhibition (IC50) came to 30 nM.

For the compound `O=C(Nc1cnn(Cc2ccccc2)c1)c1ccc2cc3n(c2c1)CC1(CCC1)CNC3=O` [Example 138, N-(1-benzyl-1H-pyrazol-4-yl)-1′-oxo-2′,3′-dihydro-1′H-spiro[cyclobutane-1,4′-[1,4]diazepino[1,2-a]indole]-8′-carboxamide], the 50% inhibitory concentration (IC50) was determined as 26.5 nM.

For the compound `CC1CNC(=O)c2cc3ccc(C(=O)Nc4cc(C(C)(C)C)on4)cc3n21` (stereo not shown) [Example 176, N-(5-tert-butyl-1,2-oxazol-3-yl)-4-methyl-1-oxo-1,2,3,4-tetrahydropyrazino[1,2-a]indole-7-carboxamide], the IC50 is 25 nM.

Turning to `CN(C)CCNC(=O)c1ccccc1NC(=O)c1ccc2cc3n(c2c1)CCCNC3=O` [Example 230, N-(2-{[2-(dimethylamino)ethyl]carbamoyl}phenyl)-1-oxo-2,3,4,5-tetrahydro-1H-[1,4]diazepino[1,2-a]indole-8-carboxamide], the 50% inhibitory concentration (IC50) worked out at 125 nM.

In the case of `C[C@H]1NC(=O)c2cc3ccc(C(=O)Nc4cnn(Cc5ccccc5)c4)cc3n2[C@H]1C` (relative stereo) [Example 29, N-(1-benzyl-1H-pyrazol-4-yl)-cis-3,4-dimethyl-1-oxo-1,2,3,4-tetrahydropyrazino[1,2-a]indole-7-carboxamide], the IC50 was found to be 1.9 nM.

Values taken from patent US9150577B2, “Heterocyclic compounds containing an indole core” (Boehringer Ingelheim International GmbH, priority 2009, dated 2015).
